A short description of one series: Solubility in water. The format is physicochemical. The note with it: in presence of air, 25 °C.
Series [1] is described as follows: Stability in water in presence of air (UV-vis, 1H and 31P NMR). The note with it: for Stability in water, Time / Stability in water, Time (Days): in presence of air, 25 °C, time without hydrolysis. Type of series: physicochemical. The method, then:
The stability of all the complexes in water was evaluated by ^31P NMR and UV–visible spectroscopies. Generally, a 5 mm NMR tube was charged in the air with the 10 mg of each complex and D2O (0.8 mL). ^1H NMR and ^31P NMR were monitored for four days to evaluate if there was any decomposition product. Decomposition/instability of the compound can be assessed by the disappearance of the NMR signals and/or by the appearance of new signals that could not be assigned to the known complex, beyond the appearance of free mTPPMS phosphine signals. Any eventual changes in the charge transfer bands between ruthenium and ligands were followed by UV–visible in the 300–900 nm range.

Series [2] has as its system A2780 ovarian cancer cells. Also on record: method as in PMID 21450266, PMID 20200702, PMID 20422091. The note with it: A2780, 72 h; cited from earlier work.
The test system of series [3] is HT29 colon cancer cells. Also on record: method as in PMID 21450266, PMID 20200702, PMID 20422091. The note with it: HT29, 72 h; cited from earlier work.
The subject of series [4] is MDAMB231 triple-negative breast cancer cells. Also on record: method as in PMID 21450266, PMID 20200702, PMID 20422091. The note with it: MDAMB231, 72 h; cited from earlier work.
The nature of series [5]: n-Octanol/water partition coefficient, shake-flask method. The format is physicochemical. The note with it: room temperature. As for the experimental part:
The lipophilicity of the complexes was measured by the shake-flask method. Distilled water and n-octanol were mixed vigorously for 24 h at 25 °C, to promote solvent saturation in both phases, before the experiments. […] Aliquots of stock solutions were equilibrated with octanol for 4 h in a mechanical shaker. The phase ratio was 2 mL/2 mL (water/n-octanol). The aqueous and octanol layers were carefully separated (by centrifugation at 5000 rpm for 10 min), and UV–vis absorption spectra of the compounds were registered in both phases. The concentration for each sample was determined using the calibration curve. Triplicate experiments have been performed for each complex and the averages were calculated.

The subject of series [6] is HT29 colon cancer cells. Briefly: MTT cytotoxicity assay, HT29. Type of series: cell-based, human. The note with it: HT29, 72 h; for IC50: mean ± SD n = 3. The method, then: (§1) The cytotoxic activity of all complexes was screened against A2780 (ovarian, Sigma-Aldrich, Lisboa, Portugal), MDAMB231 (breast, triple negative, ATCC), and HT29 (colon, ATCC) human cancer cells. Cells were grown in RPMI 1640 (A2780) or DMEM containing GlutaMax-I (MDAMB231), or McCoy’s (HT29) supplemented with 10% FBS and 1% penicillin/streptomycin (Invitrogen, Lisboa, Portugal). All cell lines were kept in a CO2 incubator (Heraeus, Hanau, Germany) with 5% CO2 at 37 °C in a humidified atmosphere. Cell viability was measured using the colorimetric MTT (3-(4,5-dimethylthiazol-2-yl)-2,5-diphenyltetrazolium bromide) assay. For the assays, cells were seeded in 200 μL of complete medium in 96-well plates and incubated at 37 °C for 24 h prior to complex treatment to allow cell adherence. The stock solutions in water (20 mM) of the complexes were freshly prepared and used for sequential dilutions in medium within the concentration range of 10^−10–10^−4 M. Cisplatin was also included in this study as a positive control. After careful removal of the medium, […] of a serial dilution of compounds in fresh medium was added to the cells, and incubation was carried out for 72 h at 37 °C. At the end of the treatment, the medium was discarded, and the cells were incubated with […] of an MTT solution in PBS (0.5 mg mL^−1). After 3 h incubation, medium was removed, and DMSO was added to solubilize the purple formazan crystals formed. The absorbance at 570 nm was measured using a plate spectrophotometer (Power Wave Xs, Bio-Tek, Winooski, VT, USA). Each experiment was repeated at least three times and each concentration tested in at least six replicates. The IC50 values were calculated from dose–response curves analyzed with the GraphPad Prism software (version 5.0).

The subject of series [7] is MDAMB231 triple-negative breast cancer cells. The series is described as follows: MTT cytotoxicity assay, MDAMB231. Particulars: MDAMB231, 72 h; for IC50: mean ± SD n = 3. The format is cell-based, human. The method, then: as §1
The subject of series [8] is A2780 ovarian cancer cells. Briefly: MTT cytotoxicity assay, A2780. The format is cell-based, human. Particulars: A2780, 72 h, mean ± SD n = 3. The method, then:
as §1

Like-named read-outs stand apart in the source and are kept apart here. Marks after values point to notes of the source that are not given here.

Regarding `COc1ccc(-n2ccnc2)cc1.O=S(=O)([O-])C(F)(F)F.O=S(=O)([O-])c1cccc(P(c2ccccc2)c2ccccc2)c1.O=S(=O)([O-])c1cccc(P(c2ccccc2)c2ccccc2)c1.[Na+].[Na+].[Ru+2].c1cc[cH-]c1` [Compound 5, [RuCp(mTPPMSNa)2(4-MpIm)][CF3SO3]], the “S(H2O)” value in the series “Solubility in water” was 28.8 mg/mL; in the series “Solubility in water” (value in brackets) it was 0.029 M. Also, in series [1], the “Stability in water, Time” value came to 0.12 days.

In the case of `N.N.[Cl][Pt][Cl]` [CisPt, Cisplatin], the IC50 – broadly, the concentration that gives 50% inhibition – in [2] is 1900 ± 100 nM; in the series with HT29 colon cancer cells [3], 7 ± 2 µM; in series [4] it was 39 ± 5 µM.

On to `NCCCn1ccnc1.O=S(=O)([O-])C(F)(F)F.O=S(=O)([O-])c1cccc(P(c2ccccc2)c2ccccc2)c1.O=S(=O)([O-])c1cccc(P(c2ccccc2)c2ccccc2)c1.[Na+].[Na+].[Ru+2].c1cc[cH-]c1` [Compound 4, [RuCp(mTPPMSNa)2(3-ApIm)][CF3SO3]], for which the figures for the “S(H2O)” value in “Solubility in water” and in “Solubility in water” (value in brackets) were 48.6 mg/mL and 0.049 M, respectively. Besides, in series [5], the “Log Po/w” value was found to be 4.43 ± 0.03. Also, in series [1] (aqueous solution), the “Time stable in water” value is 24 h. The “Stability in water, Time” value in [1] came out at 1 days.

On to “[RuCp(mTPPMSNa)2(1-BuIm)][CF3SO3] [Compound 3]”, for which the “S(H2O)” value in the series “Solubility in water” stood at 42.8 mg/mL; in “Solubility in water” (value in brackets), 0.043 M. Besides, in series [1], the “Stability in water, Time” value amounted to 0.12 days.

Turning to “[RuCp(mTPPMSNa)(pbt)][CF3SO3] [Compound 8]”, the results for the “S(H2O)” value in “Solubility in water” and in the series “Solubility in water” (value in brackets) were 20.0 mg/mL and 0.02 M, respectively. Moreover, the values for the IC50 (in the series with HT29 colon cancer cells [6]; in [7]; in series [8]) were 11.3 ± 2.4 µM, 25.4 ± 5 µM and 200 ± 80 nM, respectively. Besides, in series [1] (D2O, 4 days, UV–vis bands decrease due to precipitation), the “Stability in water by NMR (in words)” value was “remained intact without the formation of new species”. The “Stability in water, Time (Days)” value in [1] was >4 ^[b,c] Days.

As to “[RuCp(mTPPMSNa)2(1-BI)][CF3SO3] [Compound 2]”, the entries for the “S(H2O)” value in the series “Solubility in water” and in “Solubility in water” (value in brackets) were 38.6 mg/mL and 0.039 M, respectively. In [1], the “Stability in water, Time” value was 0.25 days.

In the case of `O=S(=O)([O-])C(F)(F)F.O=S(=O)([O-])c1cccc(P(c2ccccc2)c2ccccc2)c1.O=S(=O)([O-])c1cccc(P(c2ccccc2)c2ccccc2)c1.[Na+].[Na+].[Ru+2].c1c[nH]cn1.c1cc[cH-]c1` [Compound 1, [RuCp(mTPPMSNa)2(ImH)][CF3SO3]], the “S(H2O)” value in “Solubility in water” came to 21.4 mg/mL.

Consider “[RuCp(mTPPMSNa)(dpk)][CF3SO3] [Compound 7]”, for which the “S(H2O)” value in the series “Solubility in water” was 19.3 mg/mL; in the series “Solubility in water” (value in brackets), 0.019 M. Further, the “Cytotoxicity (in words)” value (with HT29 colon cancer cells [6]; in [7]) was “not cytotoxic” each time. Besides, the IC50 with HT29 colon cancer cells [6] was more than 100 µM; in series [7], more than 100 µM; in series [8] it was 450 ± 300 nM. Besides, the “Log Po/w” value in [5] is reported as 5.95 ± 0.07. The “Changes in the UV–vis spectra in aqueous solution” value in [1] (over 4 days at 37 °C) is recorded as “insignificant”. Also, in [1], the “Stability in water, Time (Days)” value is >4 ^[b] Days.

Values taken from article PMC9321894, “Design and Anticancer Properties of New Water-Soluble Ruthenium–Cyclopentadienyl Complexes” (Pharmaceuticals, 2022).
